Assays:
Estrogen receptor = biological target: T1, Estrogen receptor (Homo sapiens, UniProt P03372); settings: sf9; also: in other assays of this panel Not Active means under 50% inhibition at 10 µM
T1 sequence (P03372 whole entry): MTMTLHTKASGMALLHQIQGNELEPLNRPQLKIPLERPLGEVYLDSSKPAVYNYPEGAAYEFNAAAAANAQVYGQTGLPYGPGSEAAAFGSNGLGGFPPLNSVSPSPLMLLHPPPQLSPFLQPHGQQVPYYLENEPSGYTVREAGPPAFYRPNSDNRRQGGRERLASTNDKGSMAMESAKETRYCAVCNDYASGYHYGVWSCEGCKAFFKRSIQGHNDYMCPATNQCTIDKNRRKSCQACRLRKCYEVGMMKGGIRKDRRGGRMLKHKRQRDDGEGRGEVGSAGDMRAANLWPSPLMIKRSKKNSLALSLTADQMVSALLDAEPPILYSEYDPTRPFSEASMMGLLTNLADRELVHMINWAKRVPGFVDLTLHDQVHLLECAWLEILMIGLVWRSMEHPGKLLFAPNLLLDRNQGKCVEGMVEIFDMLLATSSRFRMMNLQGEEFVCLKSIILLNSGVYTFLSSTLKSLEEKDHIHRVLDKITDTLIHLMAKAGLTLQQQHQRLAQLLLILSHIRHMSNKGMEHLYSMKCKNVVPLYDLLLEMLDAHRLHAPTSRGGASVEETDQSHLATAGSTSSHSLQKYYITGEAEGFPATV

Estrogen receptor beta = Estrogen receptor beta (Homo sapiens, UniProt Q92731); settings: sf9; also: in other assays of this panel Not Active means under 50% inhibition at 10 µM
Sequence of Estrogen receptor beta (Q92731 whole entry): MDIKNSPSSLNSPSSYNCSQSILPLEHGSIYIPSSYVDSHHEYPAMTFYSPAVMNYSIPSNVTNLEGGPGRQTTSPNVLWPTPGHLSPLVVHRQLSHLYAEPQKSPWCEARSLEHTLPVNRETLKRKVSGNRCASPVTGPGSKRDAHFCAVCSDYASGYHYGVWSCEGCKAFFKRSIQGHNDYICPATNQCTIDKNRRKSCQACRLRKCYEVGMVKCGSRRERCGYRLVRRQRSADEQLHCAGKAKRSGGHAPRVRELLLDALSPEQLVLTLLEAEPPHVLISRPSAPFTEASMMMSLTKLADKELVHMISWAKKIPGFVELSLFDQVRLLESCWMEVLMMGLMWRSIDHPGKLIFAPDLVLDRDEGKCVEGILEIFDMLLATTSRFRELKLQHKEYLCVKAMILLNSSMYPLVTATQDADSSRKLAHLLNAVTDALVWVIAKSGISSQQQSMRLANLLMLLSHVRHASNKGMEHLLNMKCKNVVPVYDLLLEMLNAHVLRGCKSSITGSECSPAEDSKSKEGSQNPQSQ

[1] = biological target: T2, C-X-C chemokine receptor type 1 (Homo sapiens, UniProt P25024); also: in other assays of this panel Not Active means under 50% inhibition at 10 µM
T2 sequence (P25024 whole entry): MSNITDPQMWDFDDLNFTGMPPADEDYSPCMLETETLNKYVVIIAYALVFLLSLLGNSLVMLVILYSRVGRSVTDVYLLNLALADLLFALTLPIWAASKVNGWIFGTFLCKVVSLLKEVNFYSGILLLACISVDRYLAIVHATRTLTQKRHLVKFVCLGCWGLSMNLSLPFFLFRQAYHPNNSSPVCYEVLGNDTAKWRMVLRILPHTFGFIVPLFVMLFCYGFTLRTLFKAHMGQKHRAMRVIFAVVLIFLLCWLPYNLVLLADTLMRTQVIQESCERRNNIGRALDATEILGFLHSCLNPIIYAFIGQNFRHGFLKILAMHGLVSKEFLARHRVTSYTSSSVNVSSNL

D(3) dopamine receptor = D(3) dopamine receptor (Homo sapiens, UniProt P35462); experiment: DRUGMATRIX: Dopamine D3 radioligand binding (ligand: [3H] Spiperone); type: cell membranes, CHO, Membrane; settings: cho
Sequence of D(3) dopamine receptor (P35462 whole entry): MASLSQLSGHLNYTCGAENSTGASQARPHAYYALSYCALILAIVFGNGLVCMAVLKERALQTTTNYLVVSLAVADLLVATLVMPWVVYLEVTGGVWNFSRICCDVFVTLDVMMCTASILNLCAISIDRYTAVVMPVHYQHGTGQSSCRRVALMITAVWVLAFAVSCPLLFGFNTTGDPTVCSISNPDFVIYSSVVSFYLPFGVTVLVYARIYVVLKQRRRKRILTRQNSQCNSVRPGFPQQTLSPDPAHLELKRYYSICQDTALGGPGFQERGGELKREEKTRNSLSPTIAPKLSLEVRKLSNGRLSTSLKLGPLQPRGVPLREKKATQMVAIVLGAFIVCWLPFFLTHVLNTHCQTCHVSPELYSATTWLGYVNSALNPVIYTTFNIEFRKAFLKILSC

[2] = DRUGMATRIX: Calcium Channel Type L, Dihydropyridine radioligand binding (ligand: [3H] Nitrendipine); type: cell membranes, Rattus norvegicus, Wistar, Cerebral cortex, Membrane; settings: Not Active = under 50% inhibition at 10 µM
[3] = biological target: Sodium-dependent noradrenaline transporter (Homo sapiens, UniProt P23975); experiment: DRUGMATRIX: Norepinephrine Transporter radioligand binding (ligand: [125I] RTI-55); type: cell membranes, MDCK, Membrane; settings: mdck; Not Active = under 50% inhibition at 10 µM
Sequence of Sodium-dependent noradrenaline transporter (P23975 whole entry): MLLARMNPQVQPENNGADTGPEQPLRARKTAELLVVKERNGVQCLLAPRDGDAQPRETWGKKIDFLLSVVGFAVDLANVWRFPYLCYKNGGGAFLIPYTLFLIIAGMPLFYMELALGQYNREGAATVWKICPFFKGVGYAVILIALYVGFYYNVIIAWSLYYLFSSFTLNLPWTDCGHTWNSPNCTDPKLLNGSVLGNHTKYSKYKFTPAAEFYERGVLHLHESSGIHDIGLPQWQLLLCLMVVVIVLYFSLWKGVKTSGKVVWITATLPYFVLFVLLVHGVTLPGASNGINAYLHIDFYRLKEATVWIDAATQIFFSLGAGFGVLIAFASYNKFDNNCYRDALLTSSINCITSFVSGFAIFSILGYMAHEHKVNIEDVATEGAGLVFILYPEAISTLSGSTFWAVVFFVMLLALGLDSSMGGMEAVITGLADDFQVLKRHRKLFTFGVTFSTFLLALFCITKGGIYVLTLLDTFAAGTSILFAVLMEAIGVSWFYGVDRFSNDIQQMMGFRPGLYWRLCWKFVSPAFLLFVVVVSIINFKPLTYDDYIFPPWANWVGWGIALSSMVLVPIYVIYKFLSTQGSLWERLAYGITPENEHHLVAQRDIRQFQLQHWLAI

[4] = DRUGMATRIX: GABAA, Flunitrazepam, Central radioligand binding (ligand: [3H] Flunitrazepam); type: cell membranes, Rattus norvegicus, Wistar, Brain, Membrane; settings: Not Active = under 50% inhibition at 10 µM

COc1ccc(C[C@H](N)C(=O)N[C@H]2[C@@H](O)[C@H](n3cnc4c(N(C)C)ncnc43)O[C@@H]2CO)cc1 [PUROMYCIN]
Not Active: IC50 (Estrogen receptor) | IC50 (Estrogen receptor beta) | IC50 [1] | IC50 (D(3) dopamine receptor) | IC50 [2] | Ki [2] | IC50 [3] | IC50 [4] | Ki [4]

CARBOXYMETHYLCELLULOSE
Not Active: IC50 (Estrogen receptor) | Ki (Estrogen receptor) | IC50 (Estrogen receptor beta) | Ki (Estrogen receptor beta) | IC50 [1] | Ki [1] | IC50 (D(3) dopamine receptor) | Ki (D(3) dopamine receptor) | IC50 [2] | Ki [2] | IC50 [3] | Ki [3] | IC50 [4] | Ki [4]

CHROMIC CHLORIDE
Not Active: IC50 (Estrogen receptor) | Ki (Estrogen receptor) | IC50 (Estrogen receptor beta) | Ki (Estrogen receptor beta) | IC50 [1] | Ki [1] | IC50 (D(3) dopamine receptor) | Ki (D(3) dopamine receptor) | IC50 [2] | Ki [2] | IC50 [3] | Ki [3] | IC50 [4] | Ki [4]

COPPER(II) OXIDE
Not Active: IC50 (Estrogen receptor) | Ki (Estrogen receptor) | IC50 (Estrogen receptor beta) | Ki (Estrogen receptor beta) | IC50 [1] | Ki [1] | IC50 (D(3) dopamine receptor) | Ki (D(3) dopamine receptor) | IC50 [2] | Ki [2] | IC50 [3] | Ki [3] | IC50 [4] | Ki [4]

POVIDONE
Not Active: IC50 (Estrogen receptor) | Ki (Estrogen receptor) | IC50 (Estrogen receptor beta) | Ki (Estrogen receptor beta) | IC50 [1] | Ki [1] | IC50 (D(3) dopamine receptor) | Ki (D(3) dopamine receptor) | IC50 [2] | Ki [2] | IC50 [3] | Ki [3] | IC50 [4] | Ki [4]
